Values quoted from earlier work, collected in patent US5413915A (priority 1991, dated 1995).
Marks after values point to notes of the source that are not given here.

Legend:
Salmonella typhimurium = details: cited from earlier work
[1] = in vivo; cited from earlier work
[2] = in vivo; cited from earlier work; remark: listed apart in the source

Compound	Mutagenicity (Salmonella typhimurium)	Tumorigen Activity [1]	Teratogen Activity [2]	Tumorigen Activity, assignment based on IARC reports [1]	Tumorigen Activity, assignment based on NCI/NTP carcinogenesis bioassay results [1]	Carcinogenic Status [1]
BrCCBr [1,2-Dibromoethane]	+	+	-			
CCCCO [1-Butanol]	-	-	-			
O=C(O)COc1ccc(Cl)cc1Cl [2,4-D]	-		+	+	-	
CC(C)O [2-Propanol]	-	-	-	+		
O=c1cc(-c2ccccc2)oc2ccc3ccccc3c12 [5,6-Naphthoflavone]	-	-	-			
CCc1cccc(CC)c1N(COC)C(=O)CCl [Alachlor (ind.), Alachlor]	-	-	-			
O=C1O[C@H]([C@@H](O)CO)C(O)=C1O [Ascorbate]	+	-	+			Negative
CCC1(CC)C(=O)NC(=O)NC1=O [Barbital]	-	-	-			
ClC(Cl)Cl [CHCl3]	+	+	+			
S=C=S [CS2]	+	-	+			
CNC(=O)Oc1cccc2ccccc12 [Carbaryl (ind.), Carbaryl]		+	+			
CNC(=O)Oc1cccc2c1OC(C)(C)C2 [Carbofuran (ind.), Carbofuran]	+	-	-			
O=C(O)CC(O)(CC(=O)O)C(=O)O [Citrate]		-	-			
CCNc1nc(Cl)nc(NC(C)(C)C#N)n1 [Cyanazine (ind.), Cyanazine]	+	-	-			
COc1c(Cl)ccc(Cl)c1C(=O)O [Dicamba (ind.), Dicamba]	+	-	-			
ClC1=C(Cl)[C@]2(Cl)[C@@H]3[C@@H]4C[C@@H]([C@H]5O[C@@H]45)[C@@H]3[C@@]1(Cl)C2(Cl)Cl [Dieldrin]	+	+^e	+			
CN(C)C=O [Dimethylformamide]	+	-	-			
C[S+](C)[O-] [Dimethylsulfoxide]	-	-	+			
O=C(O)CN(CCN(CC(=O)O)CC(=O)O)CC(=O)O [EDTA]	-	-	+			
CCO [Ethanol]	-	-	+			
CCOC(C)=O [Ethyl Acetate]	-	-	-			
OCC(O)CO [Glycerol]		-	-			
CCOP(=S)(NC(C)C)Oc1ccccc1C(=O)OC(C)C (stereo not shown) [Isofenphos (ind.), Isofenphos]	-	-	-			
CCOP(=S)(OCC)Oc1nc(Cl)n(C(C)C)n1 [Isozofos (ind.), Isozofos]	-?	-?	-?			
O=S(=O)(O)CCCN1CCOCC1 [MOPS Buffer, morpholinopropanesulfonic acid]	-?	-?	-?			
OC[C@@H](O)[C@@H](O)[C@H](O)[C@H](O)CO [Mannitol]	-	-	-			
CO [Methanol]	-	-	+			

Compound	Mutagenicity (Salmonella typhimurium)	Tumorigen Activity [1]	Teratogen Activity [2]	Tumorigen Activity, assignment based on IARC reports [1]	Tumorigen Activity, assignment based on NCI/NTP carcinogenesis bioassay results [1]	Carcinogenic Status [1]
CNC(=O)ON=C(C)SC [Methomyl (ind.), Methomyl]	-	-	-			
C[n+]1ccc(-c2cc[n+](C)cc2)cc1 [Methyl viologen]	+	+	+			
CCc1cccc(C)c1N(C(=O)CCl)C(C)COC (stereo not shown) [Metolachlor (ind.), Metolachlor]	+	-	-			
CNC(=O)Oc1cc(C)c(N(C)C)c(C)c1 [Mexacarbate (ind.), Mexacarbate]	-	+^b	-		-	
[Cl-].[Na+] [NaCl]	-	-	-			
c1ccc2ccccc2c1 [Naphthalene]		+/-	+			
O=C(O)CN(CC(=O)O)CC(=O)O [Nitrilotriacetate]	-	+	+			
O=[O+][O-] [Ozone]	-	+^b	+			
C[n+]1ccc(-c2cc[n+](C)cc2)cc1 [Paraquat (ind.), Paraquat]	+	-	+			
O=C(O)COc1ccccc1 [Phenoxyacetate]	-	-	-			
O=S(=O)(F)Cc1ccccc1 [Phenylmethylsulfonyl fluoride]	-	-	-			
CNC(=O)Oc1ccccc1OC(C)C [Propoxur (ind.), Propoxur]	-	-	-			
CCNc1nc(Cl)nc(NCC)n1 [Simazine (ind.), Simazine]	-	+^e	+			
CCCCCCCCCCCCOS(=O)(=O)[O-].[Na+] [Sodium laurylsulfate]	-	-	-			
NC(CO)(CO)CO [TRIS Buffer, tris(hydroxymethyl-)aminomethane]	-	-	-			
ClC(Cl)=C(Cl)Cl [Tetrachloroethylene]	+	+	+			
O=S(=O)(c1ccc(Cl)cc1)c1cc(Cl)c(Cl)cc1Cl [Tetradifon (ind.), Tetradifon]	-	-	-			
Cc1cc(-c2cc(C)c(N)c(C)c2)cc(C)c1N [Tetramethylbenzidine]	-	-	-			
Cn1c(=O)c2[nH]cnc2n(C)c1=O [Theophylline]		-	+			
Cc1ccccc1 [Toluene]		-	+			
CCN(CC)CC [Triethylamine]	-	-	-			
NC(N)=O [Urea]	-	+	-			
CCCCCC [n-Hexane]	-	-	-			
c1cnc2c(c1)ccc1cccnc12 [o-Phenanthroline]	-	-	-			
Oc1ccc(-c2ccccc2)cc1 [p-Hydroxybiphenyl]	-	+	-?			
Cyanacrylate [Cyanacrylate (ind.)]	-	-	-			
